Data reported in paper PMC11582173, “Synthesis, cytotoxicity, anti-inflammatory, anti-metastatic and anti-oxidant activities of novel chalcones incorporating 2-phenoxy-N-arylacetamide and thiophene moieties: induction of apoptosis in MCF7 and HEP2 cells” (Naunyn-Schmiedeberg's Archives of Pharmacology, 2024).
Several values for one entry are separate records, joined by “and”; a condition that tells them apart may be missing. Equal entries are not always repeated.

Tested on: Caspase 8
Assay: ELISA, Caspase 8 concentration
Assay type: cell-based, human
Protocol: The concentrations of matrix metalloproteinase-2 (MMP2), matrix metalloproteinase-9 (MMP9), Bcl2, BAX, P53, Malondialdehyde (MDA), Glutathione (GSH), caspase 8, caspase 9 and IL-6 were measured quantitatively in 5c treated MCF7 and HEP2 cells using ELISA (Enzyme-Linked Immunosorbent Assay) (Table 4). Gelatinases are a collective word for MMP-2 and MMP-9, where MMP-2 is gelatinase-A and MMP-9 is gelatinase-B. Solid tumor invasion, metastasis, and angiogenesis have long been linked to gelatinases (Das et al. [2021]). […] Bcl2 is a crucial protein that targets apoptosis inhibition. It is regarded as a predictive biomarker or therapeutic target in the diagnosis of cancer due to its broad expression in a variety of cancers (Porter et al. [2009]). […] The pro-apoptotic protein BAX permeabilizes the mitochondrial outer membrane by changing from a cytosolic monomer to a hazardous oligomer triggering the apoptosis process (Fulda and Debatin [2006]). […] P53 transcription factor performs an essential tumor suppressor role by coordinating a wide range of physiological responses, including DNA repair, cell cycle arrest, cellular senescence, cell death, cell differentiation, and metabolism (Liebl and Hofmann [2021]). It was activated in MCF7 and HEP2-treated cells with values (4.28 and 3.109 ng/mL), respectively, compared to their controls (3.44 and 2.06 ng/mL). […]

## COc1ccc(NC(=O)COc2ccc(C=CC(=O)c3cccs3)cc2)cc1 [Compound 5c, N-(4-Methoxyphenyl)-2-(4-(3-oxo-3-(thiophen-2-yl)prop-1-en-1-yl)phenoxy)acetamide]
5c treated HEP2 cells, untreated 0.187±0.025
  Caspase8 concentration: 2.27 ng/mL and 2.27 ± 0.142 ng/mL
5c treated MCF7 cells, untreated 0.162±0.0203
  Caspase8 concentration: 2.13 ng/mL and 2.13 ± 0.268 ng/mL
